Counter-ions that a name gives are not always drawn. Like-named read-outs stand apart in the source and are kept apart here.
Key:
[1] = system: conditioned avoidance response (CAR) in rats; experiment: animal or person; assay type: in vivo; conditions: Rattus norvegicus
[2] = molecular target: T1, D-1 receptor (Rattus norvegicus, UniProt P18901); experiment: Competitive inhibition assay: displacement of tritiated Compound B* (D-1) from rat striatal tissue; assay type: binding, rat (male Sprague-Dawley)
T1 construct: Stdatal tissue is excised, pooled, and homogenized; from tissue; host or cells: striatum of male Sprague-Dawley rats (washed homogenate pellet)

[3] = molecular target: T2, D-2 receptor (Rattus norvegicus, UniProt P61169); experiment: Competitive inhibition assay: displacement of 3H-spiperone (D-2) from rat striatal tissue; assay type: binding, rat (male Sprague-Dawley)
T2 construct: Stdatal tissue is excised, pooled, and homogenized; from tissue; host or cells: striatum of male Sprague-Dawley rats (washed homogenate pellet)

[4] = po, 1 h, read-out: Rat CAR MED Oral (minimal effective dose)
[5] = 3H-spiperone 0.2 nM, rat striatal tissue, pH 7.4, 37° C., 15 min
[6] = tritiated compound B 0.3 nM, rat striatal tissue, pH 7.4, 37° C., 15 min
[7] = sc, 0.5 h, read-out: Rat CAR MED sc (minimal effective dose)

T1 sequence (P18901 whole entry): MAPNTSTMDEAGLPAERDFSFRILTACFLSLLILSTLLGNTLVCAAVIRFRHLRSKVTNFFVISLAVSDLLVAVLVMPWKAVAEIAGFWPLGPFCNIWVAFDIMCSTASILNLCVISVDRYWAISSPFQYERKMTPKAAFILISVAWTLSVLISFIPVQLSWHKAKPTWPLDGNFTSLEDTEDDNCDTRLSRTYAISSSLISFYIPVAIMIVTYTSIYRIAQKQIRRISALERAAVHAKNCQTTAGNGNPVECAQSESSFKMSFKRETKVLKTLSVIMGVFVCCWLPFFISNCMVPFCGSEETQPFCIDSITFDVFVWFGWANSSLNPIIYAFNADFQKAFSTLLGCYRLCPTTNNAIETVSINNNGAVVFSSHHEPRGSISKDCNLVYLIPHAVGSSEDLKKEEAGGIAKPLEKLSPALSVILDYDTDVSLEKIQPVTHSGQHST
T2 sequence (P61169 whole entry): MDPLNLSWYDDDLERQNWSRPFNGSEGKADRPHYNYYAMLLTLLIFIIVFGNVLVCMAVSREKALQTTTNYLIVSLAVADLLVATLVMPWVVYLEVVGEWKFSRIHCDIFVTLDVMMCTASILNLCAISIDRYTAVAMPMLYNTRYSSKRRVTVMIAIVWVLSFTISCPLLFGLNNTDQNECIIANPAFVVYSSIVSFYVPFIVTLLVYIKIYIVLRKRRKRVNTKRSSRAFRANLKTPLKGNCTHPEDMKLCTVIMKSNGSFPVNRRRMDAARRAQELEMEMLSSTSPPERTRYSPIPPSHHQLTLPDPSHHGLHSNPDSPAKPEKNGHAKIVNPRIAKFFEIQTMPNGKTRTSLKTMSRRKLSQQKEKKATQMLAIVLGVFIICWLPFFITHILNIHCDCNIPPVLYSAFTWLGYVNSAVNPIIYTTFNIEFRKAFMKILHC

| SMILES | minimal effective dose [1, 4] [mg/kg] | Ki [2] [nM] | Ki [3, 5] [nM] | Ki [2, 6] [nM] | minimal effective dose [1, 7] [mg/kg] | Ki [3] [nM] |
| --- | --- | --- | --- | --- | --- | --- |
| CN1CCc2c(Cl)c(Cl)c(O)c3c2C(CCC3)C1 (stereo not shown) [Cl Cl 1 H H H H H, 5,6-Dichloro-2-Methyl-1,2,3,4,8,9, 10,10a-octahydronapth[1,8-cd]azepin-7-ol] | 10 | 1.1 | 230 | – | – | – |
| CC1=Cc2c(O)c(Cl)cc3c2C(C1)CN(C)CC3 (stereo not shown) [Cl H 1 H H -- CH3 --] | > 30 | 32 | 264 | – | – | – |
| CC1Cc2c(O)c(Cl)cc3c2C(C1)CN(C)CC3 (stereo not shown) [Cl H 1 H H H CH3 H] | – | 4.5 | 250 | – | – | – |
| CN1CCc2ccc(O)c3c2C(CCC3)C1 (stereo not shown) [CH H 1 H H H H H, 2-Methyl-1,2,3,4,8,9, 10,10a-OctahydroNaphth[1,8-cd]azepine-7-ol] | – | – | 3350 | 350 | – | – |
| CN1CCc2cc(Cl)c(O)c3c2C(CCC3c2ccccc2)C1 (stereo not shown) [Cl H 1 H C6H5 H H H] | > 30 | – | 42800 | 2080 | > 10 | – |
| CN1CCc2cc(Cl)c(OC(=O)N(C)C)c3c2C(CCC3)C1 (stereo not shown) [Cl H 1 Me2NCO H H H H] | 10 | 1010 | – | – | 3 | 8010 |
| CC(C)c1ccc(NC(=O)Oc2ccc3c4c2C(C)CCC4CN(C)CC3)cc1 (stereo not shown) [H H 1 4-iPrPhNHCO CH3 H H H] | > 30 | 134 | – | – | – | 420 |
| COc1cc(NC(=O)Oc2c(Cl)cc3c4c2CCCC4CN(C)CC3)cc(OC)c1 (stereo not shown) [Cl H 1 3,5-(MeO)2PhNHCO H H H H] | 10 | 6.6 | – | – | – | 405 |
| CN1CCc2cc(Cl)c(O)c3c2C(CCC3O)C1 (stereo not shown) [Cl H 1 H HO H H H] | – | – | 6590 | 110 | – | – |
| CC1CCC2CN(C)CCc3cc(Cl)c(O)c1c32 (stereo not shown) [Cl H 1 H CH3 H H H, 6-chloro-2,8-dimethyl-1.2.3.4.8.9.10.10a-octahydro-naphth [1.8-c.d]azepin-7-ol] | 3 | 42 | 248 | – | 0.1 | – |
| CC(C)c1ccc(NC(=O)Oc2c(Cl)cc3c4c2CCCC4CN(C)CC3)cc1 (stereo not shown) [Cl H 1 4-i-PrPhNHCO H H H H, 6-Chloro-7-[(4-Isoporpylphenylamino) Carbonyloxy]-2-Methyl-1,2,3,4,8,9,10,10a-Octahydro-Naphth]1,8-cd]azepine, hydrochloride] | ≤ 30 | 51 | – | – | – | 680 |
| Cc1cc2c3c(c1O)CCCC3CN(C)CC2 (stereo not shown) [CH3 H 1 H H H H H, 2,6-Dimethyl-1,2,3,4,8,9,1 0,10a-Octahydro-Naphth[1,8. cd]azepine-7-ol, hydrochloride] | ≤ 30 | 37 | 1300 | – | – | – |
| CN1CCc2cc(Cl)c(O)c3c2C(CCC3)C1 (stereo not shown) [Cl H 1 H H H H H, 6-Chloro-2-Methyl-1,2,3,4,8,9, 10, 10a-octahydro-naphth [1,8-cd]azepin-7-ol] | > 30 | 6.2 | 500 | – | 0.3 | – |
| CN1CCc2cc(Cl)c(O)c3c2C(C1)CC3(C)C (stereo not shown) [Cl H 0 H CH3 CH3 H H] | – | 65 | 147 | – | 3 | – |
| CC1CCC2CN(C)CCc3cc(Cl)c(O)c1c32 (stereo not shown) [Cl H 1 H H CH3 H H, 6-chloro-2,8-dimethyl-1.2.3.4.8.9.10.10a-octahydro-naphth [1.8-c.d]azepin-7-ol] | – | 51 | 389 | – | – | – |
| COc1cc(NC(=O)Oc2ccc3c4c2C(C)CCC4CN(C)CC3)cc(OC)c1 (stereo not shown) [H H 1 3,5-(MeO)2PhNHCO CH3 H H H] | > 30 | 35 | – | – | – | 337 |
| CN1CCc2cc(Cl)c(O)c3c2C(CCC3(C)C)C1 (stereo not shown) [Cl H 1 H CH3 CH3 H H, 6-Chloro-2,8.8-Trimethyl-1,2,3,4,8,9,10,10a-Octahydro-Naphth [1,8-cd]azepin-7-ol] | < 30 | – | 218 | 256 | > 10 | – |

Reference: patent US5374722A, “Bridged benzazepines” (Schering Corporation, priority 1993, dated 1994)
